The values that follow are results of earlier work, collected in article PMC11511053, “Characterization of Kunitz-Domain Anticoagulation Peptides Derived from Acinetobacter baumannii Exotoxin Protein F6W77” (Toxins, 2024).

The test system of the series is Target. The conditions noted are these: Table 1, column Ref; ref PN2KPI [25], RVV inhibitor II [40], Simukunin [43], EnKT1 [48], SjKI-1 [22], Schixator [50], SmKI-1 [49], joannsin [44], KPI [45], BF9 [29], Fasxiator [42], Amblyomin-X [27], TAP [46], Bicolin [47]; cited from earlier work. The source says:
Table 1 Natural Kunitz-type anticoagulant peptides from different organisms. | column: Target

Turning to “TAP: Kunitz-type anticoagulant peptide from tick (YNRLCIKPRDWIDECDSNEGGERAYFRNGKGGCDSFWICPEDHTGADYYSSYRDCFNACI; UniProt P17726 1-60, looked up)”, the Target result is reported as “FXa”.
